Measured values: patent publication US4545991A, “Difficidin and derivative antibacterials” (Merck & Co., Inc., priority 1983, dated 1985)
≈ marks a conversion by molar mass, not a printed value. Where two headings read alike, the source gives them in different places.

What was measured:
[1] = test system: B. fragilis NCCLS control strain; assay: MIC, in vitro agar dilution assay, anaerobic bacteria (Table III); assay type: cell-based; conditions: Bacteroides fragilis, 10^6 CFU per spot, read-out: MIC
K. pneumoniae Kl^+ = assay: MIC, in vitro agar dilution assay, aerobic bacteria (Table II); assay type: cell-based; conditions: Klebsiella pneumoniae, 10^6 CFU per spot, read-out: MIC
E. coli DC 2 = assay: as above; assay type: cell-based; conditions: Escherichia coli, DC2
[2] = test system: B. fragilis Clind^r Fox^r Tet^r; assay: MIC, in vitro agar dilution assay, anaerobic bacteria (Table III); assay type: cell-based; conditions: Bacteroides fragilis, 10^6 CFU per spot, read-out: MIC
[3] = test system: Bacteriodes fragilis Metr^r, Pen^r; assay: as above; assay type: cell-based; conditions: 10^6 CFU per spot, read-out: MIC
[4] = test system: C. difficile Clind^r, Fox^r; assay: as above; assay type: cell-based; conditions: Clostridioides difficile, 10^6 CFU per spot, read-out: MIC
Prot. mirabilis Gm^R = assay: MIC, in vitro agar dilution assay, aerobic bacteria (Table II); assay type: cell-based; conditions: Proteus mirabilis, 10^6 CFU per spot, read-out: MIC
B. ovatus Pen^r = assay: MIC, in vitro agar dilution assay, anaerobic bacteria (Table III); assay type: cell-based; conditions: Bacteroides ovatus, 10^6 CFU per spot, read-out: MIC
Propionibacterium acnes = assay: as above; assay type: cell-based; conditions: Cutibacterium acnes, 10^6 CFU per spot, read-out: MIC
C. difficile Fox^r = assay: as above; assay type: cell-based; conditions: Clostridioides difficile
E. coli TEM 2^+ DC 2 = assay: MIC, in vitro agar dilution assay, aerobic bacteria (Table II); assay type: cell-based; conditions: Escherichia coli
[5] = test system: B. distasonis Pen^r Fox^r Clind^r; assay: MIC, in vitro agar dilution assay, anaerobic bacteria (Table III); assay type: cell-based; conditions: Parabacteroides distasonis, 10^6 CFU per spot, read-out: MIC
C. ramosum = assay: as above; assay type: cell-based; conditions: Thomasclavelia ramosa, 10^6 CFU per spot, read-out: MIC
[6] = test system: B. thetaiotaomicron Clind^r, NCCLS control strain; assay: as above; assay type: cell-based; conditions: Bacteroides thetaiotaomicron, 10^6 CFU per spot, read-out: MIC
[7] = test system: Bifidobacterium dentium Fox^r; assay: as above; assay type: cell-based; conditions: Bifidobacterium dentium
[8] = test system: Peptostreptococcus anaerobius; assay: as above; assay type: cell-based; conditions: 10^6 CFU per spot, read-out: MIC
S. aureus Gm^R Meth^R = assay: MIC, in vitro agar dilution assay, aerobic bacteria (Table II); assay type: cell-based; conditions: Staphylococcus aureus
Ent. cloacae P99^+ = assay: as above; assay type: cell-based; conditions: Enterobacter cloacae
Ser. marcescens = assay: as above; assay type: cell-based; conditions: Serratia marcescens, 10^6 CFU per spot, read-out: MIC
[9] = test system: Fusobacterium mortiferum Fox^r; assay: MIC, in vitro agar dilution assay, anaerobic bacteria (Table III); assay type: cell-based; conditions: 10^6 CFU per spot, read-out: MIC
[10] = test system: B. thetaiotaomicron Clind^r; assay: as above; assay type: cell-based; conditions: Bacteroides thetaiotaomicron, 10^6 CFU per spot, read-out: MIC
B. fragilis Pen^r = assay: as above; assay type: cell-based; conditions: Bacteroides fragilis, 10^6 CFU per spot, read-out: MIC
[11] = test system: Clostridium perfringens NCCLS control strain; assay: microbe, parasite or virus in culture; assay type: cell-based; conditions: Clostridium perfringens
Ps. aeruginosa [12] = assay: MIC, in vitro agar dilution assay, aerobic bacteria (Table II); assay type: cell-based; conditions: Pseudomonas aeruginosa
Sal. typhimurium = assay: as above; assay type: cell-based; conditions: Salmonella enterica, 10^6 CFU per spot, read-out: MIC
Ent. cloacae P99^- = assay: as above; assay type: cell-based; conditions: Enterobacter cloacae
Veillonella alcalescens = assay: MIC, in vitro agar dilution assay, anaerobic bacteria (Table III); assay type: cell-based; conditions: Veillonella parvula, 10^6 CFU per spot, read-out: MIC
Prot. vulgaris = assay: MIC, in vitro agar dilution assay, aerobic bacteria (Table II); assay type: cell-based; conditions: Proteus vulgaris, 10^6 CFU per spot, read-out: MIC
E. coli = assay: as above; assay type: cell-based; conditions: Escherichia coli, 10^6 CFU per spot, read-out: MIC
Text: (§1) Further evaluations of the antibacterial spectrum of difficidin and oxydifficidin were undertaken, especially as compared to the antibacterial spectrum of the valuable antibiotic cefoxitin, which is well known for its wide spectrum of antibacterial activity. An in vitro agar dilution assay was used, inoculum 10^6 CFU per spot. Table II below illustrates the results obtained for various aerobic bacteria, and Table III illustrates the results obtained for various anaerobic bacteria.

S. aureus = assay: as above; assay type: cell-based; conditions: Staphylococcus aureus, 10^6 CFU per spot, read-out: MIC
Text: as §1

Strep. faecalis = assay: as above; assay type: cell-based; conditions: Enterococcus faecalis, 10^6 CFU per spot, read-out: MIC
Text: as §1

[13] = test system: B. distasonis Pen^r Fox^r; assay: MIC, in vitro agar dilution assay, anaerobic bacteria (Table III); assay type: cell-based; conditions: Parabacteroides distasonis, 10^6 CFU per spot, read-out: MIC
Ps. aeruginosa RPL 11^+ = assay: MIC, in vitro agar dilution assay, aerobic bacteria (Table II); assay type: cell-based; conditions: Pseudomonas aeruginosa
Actinomyces naeslundii = assay: MIC, in vitro agar dilution assay, anaerobic bacteria (Table III); assay type: cell-based; conditions: 10^6 CFU per spot, read-out: MIC
Eubacterium limosum = assay: as above; assay type: cell-based; conditions: 10^6 CFU per spot, read-out: MIC
E. coli TEM 2^+ = assay: MIC, in vitro agar dilution assay, aerobic bacteria (Table II); assay type: cell-based; conditions: Escherichia coli
Ps. aeruginosa [14] = assay: as above; assay type: cell-based; conditions: Pseudomonas aeruginosa; remark: listed apart in the source
Ent. aerogenes = assay: as above; assay type: cell-based; conditions: Klebsiella aerogenes
Prot. morganii Sm^R = assay: as above; assay type: cell-based; conditions: Morganella morganii
[15] = test system: Klebsiella pneumoniae MB 4005; assay: standard mouse protection test, experimental systemic infection; assay type: in vivo, CD1 female mice; conditions: Klebsiella pneumoniae, MB4005, ip, 168 h, × 2 i.p. doses (immediately after infection and 6 hours later), 7 days
Procedure: The antibacterial efficacy of difficidin and its derivatives was further determined in standard mouse protection tests. An experimental systemic infection was produced in CD1 female mice (Charles River Breeding Laboratories, Wilmington, MA) by the intraperitoneal injection of a suitably diluted broth culture of Klebsiella pneumoniae MB 4005. The test antibacterial compounds and the control drug (streptomycin) were administered parenterally (intraperitoneally) immediately after infection and again 6 hours later. At least 4 fourfold dilutions of each agent were tested. There were 5 mice at each dose level. […] Under the conditions of the test, all infected untreated mice died within 48 hours.
Mice were protected by the administration of the test antibacterial compounds or streptomycin at the median effective doses shown in Table IV below.

With `CO[C@@]1(NC(=O)Cc2cccs2)C(=O)N2C(C(=O)O)=C(COC(N)=O)CS[C@@H]21` [Cefoxitin, cefoxitin, reference compound] the MIC [1] was 4 µg/mL (≈ 9.36 µM), the MIC (K. pneumoniae Kl^+) was 4 µg/mL (≈ 9.36 µM) and the MIC (E. coli DC 2) was 1 µg/mL (≈ 2.34 µM). For the same molecule, the MIC [2] was 32 µg/mL (≈ 74.9 µM), the MIC [3] was 2 µg/mL (≈ 4.68 µM) and the MIC [4] was 64 µg/mL (≈ 150 µM). The MIC (Prot. mirabilis Gm^R) was 32 µg/mL (≈ 74.9 µM), the MIC (B. ovatus Pen^r) was 8 µg/mL (≈ 18.7 µM) and the MIC (Propionibacterium acnes) was at most 0.008 µg/mL. It also gave an MIC (C. difficile Fox^r) of 128 µg/mL (≈ 299 µM), an MIC (E. coli TEM 2^+ DC 2) of 1 µg/mL (≈ 2.34 µM) and an MIC [5] of 16 µg/mL (≈ 37.4 µM). The MIC (C. ramosum) was 4 µg/mL (≈ 9.36 µM), the MIC [6] was 16 µg/mL (≈ 37.4 µM) and the MIC [7] was 4 µg/mL (≈ 9.36 µM). It also gave an MIC [8] of at most 0.008 µg/mL, an MIC (S. aureus Gm^R Meth^R) of over 128 µg/mL and an MIC (Ent. cloacae P99^+) of over 128 µg/mL. The MIC (Ser. marcescens) was 64 µg/mL (≈ 150 µM), the MIC [9] was 16 µg/mL (≈ 37.4 µM) and the MIC [10] was 16 µg/mL (≈ 37.4 µM). For the same molecule, the MIC (B. fragilis Pen^r) was 8 µg/mL (≈ 18.7 µM), the MIC [11] was 0.5 µg/mL (≈ 1.17 µM) and the MIC (Ps. aeruginosa [12]) was over 128 µg/mL. For the same molecule, the MIC (Sal. typhimurium) was 8 µg/mL (≈ 18.7 µM), the MIC (Ent. cloacae P99^-) was 16 µg/mL (≈ 37.4 µM) and the MIC (Veillonella alcalescens) was 0.5 µg/mL (≈ 1.17 µM). The MIC (Prot. vulgaris) was 16 µg/mL (≈ 37.4 µM), the MIC (E. coli) was over 128 µg/mL and the MIC (S. aureus; first unmarked strain) was 2 µg/mL (≈ 4.68 µM). The MIC (S. aureus; second unmarked strain) was 2 µg/mL (≈ 4.68 µM), the MIC (Strep. faecalis) was over 128 µg/mL and the MIC [13] was 64 µg/mL (≈ 150 µM). For the same molecule, the MIC (Ps. aeruginosa RPL 11^+) was over 128 µg/mL, the MIC (Actinomyces naeslundii) was 0.015 µg/mL (≈ 0.0351 µM) and the MIC (Eubacterium limosum) was 0.25 µg/mL (≈ 0.585 µM). It also gave an MIC (E. coli TEM 2^+) of 4 µg/mL (≈ 9.36 µM), an MIC (Ps. aeruginosa [14]) of over 128 µg/mL and an MIC (Ent. aerogenes) of over 128 µg/mL. For the same molecule, the MIC (Prot. morganii Sm^R) was 16 µg/mL (≈ 37.4 µM).
For `[H]/N=C(/N)N[C@H]1[C@H](O)[C@@H](O)[C@H](O[C@@H]2O[C@@H](C)[C@](O)(C=O)[C@H]2O[C@@H]2O[C@@H](CO)[C@H](O)[C@@H](O)[C@@H]2NC)[C@@H](N/C(N)=N\[H])[C@@H]1O` [Streptomycin, streptomycin, reference compound], the ED50 ([15]; Test No. 1) was 0.38 mg/kg, the ED50 ([15]; Test No. 2) was 1.41 mg/kg and the ED50 ([15]; Test No. 3) was 0.38 mg/kg.
